# Assay results as given in patent US10888569B1, “Methods and compositions for treating cancer” (THE UNIVERSITY OF CHICAGO, priority 2017, dated 2021).
# Experiments:
# BACH1 = target: T1, BACH1 (Mus musculus, UniProt P97302, C438A/C464A/C495A/C649A); assay: Immunoblotting of BACH1 in cell lysates after hemin; format: cell-based, human; conditions: hemin 20 μM
# T1 construct: Protein blots of BACH1 levels in BM1 and MB436 cells treated with Hemin for 4 or 24 hours; endogenous in cells; host or cells: BM1 (MDA-MB-231 derivative), MDA-MB-436, BT549
# T1 sequence (P97302 1-739 C438A/C464A/C495A/C649A): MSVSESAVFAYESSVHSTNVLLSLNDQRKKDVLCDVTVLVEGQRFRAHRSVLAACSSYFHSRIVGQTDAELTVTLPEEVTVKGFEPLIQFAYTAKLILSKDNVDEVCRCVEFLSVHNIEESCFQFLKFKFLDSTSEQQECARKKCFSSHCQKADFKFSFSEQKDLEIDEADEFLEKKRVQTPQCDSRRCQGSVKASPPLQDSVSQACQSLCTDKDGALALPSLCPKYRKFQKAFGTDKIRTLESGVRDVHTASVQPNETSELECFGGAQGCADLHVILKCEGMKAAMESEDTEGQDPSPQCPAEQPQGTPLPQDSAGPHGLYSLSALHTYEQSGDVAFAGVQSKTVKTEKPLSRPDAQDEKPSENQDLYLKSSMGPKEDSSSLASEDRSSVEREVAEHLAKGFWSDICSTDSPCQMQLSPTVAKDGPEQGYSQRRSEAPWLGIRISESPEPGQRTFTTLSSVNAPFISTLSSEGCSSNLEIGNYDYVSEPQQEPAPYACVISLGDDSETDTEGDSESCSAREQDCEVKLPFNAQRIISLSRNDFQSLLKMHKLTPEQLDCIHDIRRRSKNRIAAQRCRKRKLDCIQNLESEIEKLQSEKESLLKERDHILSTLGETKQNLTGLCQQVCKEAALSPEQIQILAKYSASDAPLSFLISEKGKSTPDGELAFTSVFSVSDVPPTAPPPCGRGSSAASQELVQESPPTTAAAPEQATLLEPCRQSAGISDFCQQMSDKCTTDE
# Description: Whole cell lysates were prepared using RIPA buffer (Sigma) with protease inhibitor cocktails (1:100 ThermoFisher) and phosphatase inhibitors (SimpleStop1, Gold Biotechnology) at 4° C. and quantified using Bradford assays for western blotting using antibodies against BACH1 (sc-271211; Santa Cruz), and alpha-TUBULIN (sc-28199; Santa Cruz). Blots were imaged and processed using a Licor Odyssey Fc, dual-mode imaging system (Licor).
# [1] = test system: mitochondrial inner membrane genes; assay: Real-time quantitative PCR of mitochondrial inner membrane (ETC) genes; format: cell-based, human; conditions: hemin 20 μM, 48 hours; BM1 and MB436 cells
# Description: Total RNA from cells and tumor samples was isolated using Trizol (Invitrogen) according to the manufacturer's instructions. Two μg of RNA was adapted for reverse transcriptase PCR (Applied Biosystem) to generate cDNA. Real-time PCR was carried out using LightCycler 96 (Roche) and a Fast Start Essential DNA master mix (2×) reagent. Cq values normalized relative to the expression of endogenous control genes using 2^(−ΔΔCq) were plotted.
# TNBC cells (BM1) = assay: Metabolic phenotypes OCR and ECAR (Seahorse analyzer); format: cell-based, human; conditions: hemin (pre-)treatment overnight
# Description: TNBC cell lines stably knocked down with lenti-viral shRNA for BACH1 were constructed and maintained as described previously. Gene expression analysis of cultured cells and isolated tumor tissues used a Reverse transcriptase kit followed by Roche96 cycler for real time mRNA quantification and Lycor imaging for immunoblotting. For in vitro cell viability assay with mitochondrial inhibitors, TNBC cells (2×10^3-5×10^3/well) seeded on 96 well plates overnight with culture media (DMEM with 25 mM Glucose) were treated with inhibitors in fresh culture media (DMEM with 1.25 mM Glucose) for 48 and 72 hours and stained with calcein AM and/or monitored for cellular confluency using an IncuCyte Zoom Live Cell Analysis system. Extracellular flux analyzer was used to assay metabolic phenotypes of BACH1-depleted TNBC cells and TNBC cells that are treated with hemin overnight before assays. For bioinformatics analysis using primary patient data cohort (TCGA), cBioportal and R were used.
# Extracellular acidification rates (ECAR) and oxygen consumption rates (OCR) were monitored by a Seahorse Bioscience Analyzer (XF24; Univ. of Illinois at Chicago and XFe96; Biophysics Core Facility at Univ. of Chicago). Cells were seeded in 24 well plates at a density of 5×10^4 and 96 well plates at a density of 8×10^3 cells per well with growth media for at least 18 hours. The following day, media was changed to base media (DMEM, 143 mM NaCl, Phenol red, pH 7.35). For ECAR analysis, cells were added with media (2 mM Glutamine, pH 7.35) and monitored every 3 minutes following successive administration of 10 mM of glucose, and inhibitors such as 1 μM of oligomycin and 50 mM of 2-DG. For OCR analysis, cells were added with mito stress test base media (10 mM Glucose, 2 mM Glutamine, 1 mM Pyruvate, pH 7.4) and monitored every 3 minutes following successive administration of inhibitors such as 2 μM of oligomycin, 2 μM of FCCP, and […] of Rotenone/AntimycinA. BCA protein assays were used to normalize metabolic rates to cell number.
# [2] = test system: BACH1-enriched TNBC PDX tumor; assay: Patient-derived xenograft (PDX) model treated with hemin and metformin; format: in vivo, mouse; conditions: hemin 50 mg/kg/day i.p. and/or metformin 300 mg/kg/day; SCID-BEIGE mice
# Description: For a patient-derived xenografts (PDX) model, frozen PDX tumors in 0.5 ml of sterile HBSS were prepared in a volume of 10-20 mm^3. In brief, tumor fragments were implanted into the mammary fat pads of 5 weeks old SCID-Beige mice following standard procedures. […] Tumor volume was measured by caliper weekly. Tumor weight was measured at the end of drug treatment. Tumor size was shown as mean+/_s.e.m. with significance (p-value) by paired Student's t-test. All the animals were also monitored regularly for body weights.
# pPDH (Ser293) = assay: Immunoblotting of PDX tumor lysates: pPDH (Ser293); format: in vivo, mouse; conditions: following hemin treatment
smiles,measurement,setting,value
"C=CC1=C(C)c2cc3[n-]c(cc4[n-]c(cc5nc(cc1n2)C(C)=C5C=C)c(C)c4CCC(=O)O)c(CCC(=O)O)c3C.[Cl-].[Fe+3] [hemin, Chloro[3,7,12,17-tetramethyl-8,13-divinylporphyrin-2,18-dipropanoato(2-)]iron(III)]",degradation of heme-resistant BACH1 mutant (Mut-Bach1),BACH1,did not degrade Mut-Bach1
same,mitochondrial gene expression,[1],increased
same,ECAR,TNBC cells (BM1),lower basal ECAR
same,maximum OCR,TNBC cells (BM1),higher maximum OCR
same,spare respiratory capacity,TNBC cells (BM1),higher spare respiratory capacity
same,"PDX tumor volume, weight, size compared to controls",[2],considerable reduction in tumor volumes
same,pPDH (Ser293) protein expression in PDX tumors,pPDH (Ser293),depleted
